Strand notation (5' to 3'): a small letter for the sugar, then the base; units joined by * are phosphorothioate-linked, units joined directly phosphodiester-linked; [ ] holds rarer units or linkages, { } end groups; capitals alone tell only the bases. e = 2'-O-(2-methoxyethyl) (MOE); [5mC] = 5-methylcytosine; d = 2'-deoxy (DNA)
How the values were obtained:
PKK mRNA = PKK mRNA in liver of mice treated with ISIS 461756 (Example 18); type: in vivo, mouse
Description: Vascular permeability induced by ISIS 461756, an antisense oligonucleotide which targets murine C1 inhibitor mRNA, increases vascular permeability in mice and replicates the pathology of hereditary angioedema. The effect of ISIS 482584 on this model was evaluated.
One group of 8 mice was treated with 40 mg/kg ISIS 482584 administered subcutaneously twice a week for 3 weeks (weekly dose of 80 mg/kg). A second group of 8 mice was treated with 40 mg/kg of the control oligonucleotide, ISIS 141923, administered subcutaneously twice a week for 3 weeks (weekly dose of 80 mg/kg). A third group of 8 mice was treated with PBS administered subcutaneously twice a week for 3 weeks. On day 14, all the groups were treated with 12.5 mg/kg ISIS 461756 administered subcutaneously twice a week for 3 weeks (weekly dose of 25 mg/kg). A control group of mice was treated with PBS administered subcutaneously twice a week for 3 weeks but was not administered ISIS 461756.
At the end of the treatment period, all the groups were injected with 30 mg/kg of Evans Blue solution into the tail vein. The mice were sacrificed 30 min after the Evans Blue solution administration and colons, feet, ears, and intestines were harvested. The liver was also harvested for RNA analysis.
RNA was isolated from the liver for RT-PCR analysis of C1-INH and PKK mRNAs. The primer probe set for C1-INH is RTS3218 (forward sequence […], designated herein as SEQ ID NO: 2234; reverse sequence […], designated herein as SEQ ID NO: 2235; probe sequence […], designated herein as SEQ ID NO: 2236). The primer probe set for PKK is RTS3287 (forward sequence […], designated herein as SEQ ID NO: 2237; reverse sequence […], designated herein as SEQ ID NO: 2238; probe sequence […], designated herein as SEQ ID NO: 2239). The results are presented in Table 79 as percent inhibition compared to the PBS control not treated with ISIS 461756.

PKK protein = PKK protein in BALB/c mice plasma by immunoblot (Example 10); type: in vivo, mouse; details: for % inhibition of PKK protein in BALB/c mice plasma: twice a week for 3 weeks, relative to PBS control
Description: Six groups of male BALB/c mice each were treated with 2.5 mg/kg, 5.0 mg/kg, 10.0 mg/kg, 20.0 mg/kg, 40.0 mg/kg, or 80.0 mg/kg of ISIS 482584, administered subcutaneously twice a week for 3 weeks (weekly doses of 5.0 mg/kg, 10.0 mg/kg, 20.0 mg/kg, 40.0 mg/kg, 80.0 mg/kg, or 160.0 mg/kg). A control group of BALB/c mice was treated with PBS, administered subcutaneously twice a week for 3 weeks. Two days after the last dose of antisense oligonucleotide or PBS, mice from all groups were anesthetized with 150 mg/kg ketamine mixed with 10 mg/kg xylazine, administered by intraperitoneal injection. Liver was collected for RNA analysis.
Plasma was collected in tubes containing sodium citrate as an anticoagulant. The samples were run on a 4-12% gradient SDS-polyacrylamide gel (Invitrogen), followed by immunoblotting with murine PKK antibody (R&D Systems). Blots were incubated with secondary fluorophore-labeled antibodies (LI-COR) and imaged in an Odyssey Imager (LI-COR). Results are presented as percent inhibition of PKK, relative to PBS control.

[1] = system: thrombus formation (platelet factor-4 mRNA); experiment: FeCl3-induced inferior vena cava thrombosis model, PF-4 quantification (Example 19); type: in vivo, mouse; details: BALB/c mice; for PF-4 (percentage compared to PBS controls): FeCl3 vena cava
Description: Three groups of 8 male BALB/c mice were treated with 10 mg/kg, 20 mg/kg, or 40 mg/kg of ISIS 482584, administered subcutaneously twice a week for 3 weeks (weekly doses of 20 mg/kg, 40 mg/kg, or 80 mg/kg). Two control groups of 12 BALB/c mice each were treated with PBS, administered subcutaneously twice a week for 3 weeks. Two days after the last dose of antisense oligonucleotide or PBS, mice from all groups were anesthetized with 150 mg/kg ketamine mixed with 10 mg/kg xylazine, administered by intraperitoneal injection. Thrombus formation was induced with FeCl3 in all groups of anesthetized mice except the first control group.
In mice undergoing FeCl3 treatment, thrombus formation was induced by applying a piece of filter paper (2×4 mm) pre-saturated with 10% FeCl3 solution directly on the vena cava. After 3 minutes of exposure, the filter paper was removed. Thirty minutes after the filter paper application, a fixed length of the vein containing the thrombus was dissected out for platelet analysis. Liver was collected for RNA analysis.
Real-time PCR quantification of platelet factor-4 (PF-4) was used to quantify platelets in the vena cava as a measure of thrombus formation. PF-4 mRNA levels were measured using the murine primer probe set mPF4_LTS_00086 (forward sequence […], designated herein as SEQ ID NO: 2240; reverse sequence CGCAGCGACGCTCATG, designated herein as SEQ ID NO: 2241; probe sequence […], designated herein as SEQ ID NO: 2242). Results are presented as a percentage of PF-4 in ISIS oligonucleotide-treated mice, as compared to the two PBS-treated control groups. […] Therefore, reduction of PKK by the compound provided herein is useful for inhibiting thrombus formation.

[2] = C-reactive protein and complement C3 levels in cynomolgus monkeys (Example 8); details: cynomolgus monkey plasma, 40 mg/kg sc
Description: Prior to the study, the monkeys were kept in quarantine for a 30-day period, during which the animals were observed daily for general health. The monkeys were 2-4 years old and weighed between 2 and 4 kg. Ten groups of four randomly assigned male cynomolgus monkeys each were injected subcutaneously with ISIS oligonucleotide or PBS. PBS solution or ISIS oligonucleotides at a dose of 40 mg/kg were administered initially with a loading regimen consisting of four doses on the first week of the study (days 1, 3, 5, and 7), followed by a maintenance regimen consisting of once weekly administration starting on Day 14 (weeks 2 to 13). Subcutaneous injections were performed in clock-wise rotations at 4 sites on the back; one site per dose. The injection sites were delineated by tattoo, while sedated using ketamine, and were separated by a minimum of 3 cm.
To evaluate any inflammatory effect of ISIS oligonucleotides in cynomolgus monkeys, the monkeys were fasted overnight. Approximately, 1.5 mL of blood samples were collected from all the study groups. Blood was collected in tubes without anticoagulant for serum separation. The tubes were kept at room temperature for a minimum of 90 min and then centrifuged at 3,000 rpm for 10 min. C-reactive protein (CRP), which is synthesized in the liver and which serves as a marker of inflammation, was measured using a Toshiba 120FR NEO chemistry analyzer (Toshiba Co., Japan). Complement C3 was also measured similarly, and the data is presented as a percentage of baseline values.

Substance | Percent inhibition of PKK mRNA expression compared to the untreated PBS control (PKK mRNA; liver, all groups ISIS 461756 25 mg/kg/wk, pretreatment PBS or oligonucleotide 80 mg/kg/wk sc 3 weeks) [%] | PKK expression (PKK mRNA; mouse liver, 40 mg/kg s.c. twice a week for 3 weeks) | % inhibition of PKK protein in BALB/c mice plasma (PKK protein; 5 mg/kg/wk sc) [%] | % inhibition of PKK protein in BALB/c mice plasma (PKK protein; 10 mg/kg/wk sc) [%] | % inhibition of PKK protein in BALB/c mice plasma (PKK protein; 20 mg/kg/wk sc) [%] | % inhibition of PKK protein in BALB/c mice plasma (PKK protein; 40 mg/kg/wk sc) [%] | % inhibition of PKK protein in BALB/c mice plasma (PKK protein; 80 mg/kg/wk sc) [%] | reduction of PKK plasma protein (PKK protein; BALB/c mice, 2.5-80.0 mg/kg s.c. twice a week for 3 weeks, vs PBS) | PF-4 (percentage compared to PBS controls) ([1]; 20 mg/kg/wk sc 3 weeks) [%] | PF-4 (percentage compared to PBS controls) ([1]; 40 mg/kg/wk sc 3 weeks) [%] | PF-4 (percentage compared to PBS controls) ([1]; 80 mg/kg/wk sc 3 weeks) [%] | PF-4 in vena cava ([1]; 10-40 mg/kg s.c. twice a week for 3 weeks, vs PBS control) | C3 (% of baseline) [2] | CRP [2] [mg/dL]
ISIS 482584: 5-10-5 MOE gapmer targeting murine PKK, GGCATATTGGTTTTTGGAAT; SEQ ID NO: 2244 (antisense eG*eG*e[5mC]*eA*eT*dA*dT*dT*dG*dG*dT*dT*dT*dT*dT*eG*eG*eA*eA*eT) | 78 | significantly reduced PKK expression | 5 | 24 | 47 | 76 | 81 | significant dose-dependent reduction of PKK plasma protein | 62 | 34 | 25 | significant reduction of PF-4 | – | –
Tes Ges mCes Aes Aes Gds Tds mCds Tds mCds Tds Tds Gds Gds mCds Aes Aes Aes mCes Ae [ISIS 546254] | – | – | – | – | – | – | – | – | – | – | – | – | 61 % of baseline | 0.8

Source: patent US11840686B2, “Modulation of prekallikrein (PKK) expression” (Ionis Pharmaceuticals, Inc., priority 2013, dated 2023)
